Molecules are shown by their SMILES.

The test system of test [1] is stem cells. As to conditions: novel dual-lumen device with lidocaine infusion, without pressure modulation; live porcine model, N=4, control single-hole device.
Experimental: The colony forming unit (CFU) assay is an accepted measure of relative stem cell concentrations in BMA. […] A preliminary (N=4) trial of BMA in a live porcine model was performed comparing a single-hole cancer aspiration device to the novel dual-lumen BMA method.
The conditions of test [2]: intraosseous infusion; cited from earlier work.

In the case of `CCN(CC)CC(=O)Nc1c(C)cccc1C` [lidocaine], in test [1], the “CFU/mL of aspirate versus control” value is recorded as “more than doubled”. Also, the whole-bone anesthesia entry in test [2] is listed as “effective in whole-bone anesthesia”.

(Values after patent publication US12419619B2, “Aspiration device” (YALE UNIVERSITY, priority 2016, dated 2025).)
